What is called EC50 is the concentration needed to bring the measured effect to its halfway point.

In this test the target is T1, human GPR120 (Homo sapiens, UniProt Q5NUL3).
T1 construct: Flag (DYKDDDDK) (N); host or cells: HEK293 cells co-expressing Gqi5
T1 sequence (Q5NUL3 1-361): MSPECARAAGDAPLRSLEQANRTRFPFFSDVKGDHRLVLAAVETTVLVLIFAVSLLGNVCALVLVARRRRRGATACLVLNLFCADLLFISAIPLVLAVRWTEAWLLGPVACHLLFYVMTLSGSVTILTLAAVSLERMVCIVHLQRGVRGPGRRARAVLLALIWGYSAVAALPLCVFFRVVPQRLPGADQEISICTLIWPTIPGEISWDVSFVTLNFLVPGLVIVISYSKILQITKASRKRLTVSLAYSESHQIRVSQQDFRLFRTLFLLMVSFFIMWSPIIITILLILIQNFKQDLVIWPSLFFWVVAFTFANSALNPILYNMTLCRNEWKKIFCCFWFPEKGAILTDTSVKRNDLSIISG
Description: Intracellular Ca2+ assay (FLIPR Calcium 4, Flexstation) in human GPR120 stable cell line. The format is cell-based. The following applies: for % Activity (Ex. 25 Reference Compound): % activity at 2.5 μM compared to the maximal activity of the compound of Example 25 at 2.5 μM, HEK293 cells co-expressing Gqi5; for EC50: human GPR120 stably expressing cells, eight concentrations from 0.00001 to 20 μM. The method, then:
Human GPR120 stable cell line was purchased from Multispan Inc (26219 Eden Landing Road, Hayward, Calif. 94545). This GPR120 cell line was generated in HEK293 cells co-expressing Gqi5. In this cell line, the Flag epitope tag (DYKDDDDK) was fused to the amino terminus of human GPR120 protein.
The concentration of intracellular Ca^2+ was measured as described below. Human GPR120 cells were plated in 96 well plates (Poly-D-Lysine coated black/clear Plate, Greiner Bio-One) at 70,000 cells per well and cultured overnight in conditions of 37° C. and 5% CO2. A Ca^2+ assay dye stock solution was prepared by adding 10 mL of assay buffer (HBSS/20 mM HEPES, pH 7.4) to FLIPR Calcium 4 Assay Bulk Kit (Molecular Devices). The 10 mL of Ca^2+ assay dye solution was prepared by further diluting 0.5 mL of Ca^2+ assay dye stock solution with 10 mL of assay buffer. The medium of the cells was removed and immediately 100 μL of the Ca^2+ assay dye solution was dispensed into each well followed by incubation at 37° C. and 5% CO2 for 50 minutes to incorporate the Ca^2+ dye into the cells. The cell plate was then placed in the Flexstation (Molecular Devices) for 20 minutes at 37° C. Compounds were dissolved in 100% DMSO and diluted to desired concentrations with assay buffer and placed in the Flexstation simultaneously with the cell plate for 20 minute incubation at 37° C. prior to reading. Fluorescence intensity was measured immediately following compound addition (25 μL/well) on the Flexstation at an excitation wavelength of 485 nm and an emission wavelength of 525 with 515 nm auto cutoff. The resulting increase in fluorescence intensities corresponds to increases in intracellular Ca^2+ levels.
Compounds were dissolved in 100% DMSO to a concentration of 20 mM to provide stock solutions. To determine activity against human GPR120, compounds were added with human GPR120 stably expressing cells (described above), at eight desired concentrations ranging from 0.00001 to 20 μM, in 96 well plates and fluorescence intensities were measured for 90 seconds with 2-second intervals. An EC50 value (concentration of the GPR120 agonist where 50% of the agonist's maximal activity is observed) was calculated using the changes (Max-Min) of fluorescence intensity.
To determine percent activity for a tested compound, the fluorescence intensity value obtained at a particular concentration were compared to the maximal fluorescence intensity value obtained for reference compound GW9508 (4-[[(3-phenoxyphenyl)methyl]amino]benzene propanoic acid; British Journal of Pharmacology 2006 148, 619-628) or the compound of Example 25. When GW9508 was used as the reference compound, the maximal activity of GW9508 at 6.7 μM was designated as 100% activity. When the compound of Example 25 was used as the reference compound, the maximal activity of the compound of Example 25 at 2.5 μM was designated as 100% activity. Typically, the GW9508 activity reached a maximum at a concentration of approximately 6.7 μM and typically the compound of Example 25 reached a maximum activity at approximately 2.5 μM.

With `COc1cc(CCC(=O)O)c(Br)cc1OCc1cc(F)cc2c1OC(C)(C)C2` [Example 56, 3-(2-bromo-4-((5-fluoro-2,2-dimethyl-2,3-dihydrobenzofuran-7-yl)methoxy)-5-methoxyphenyl)propanoic acid], the “% Activity (Ex. 25 Reference Compound)” value came out at 108.51% and the EC50 lay within 1 to 10 µM.

As to `COc1cc(CCC(=O)O)c(Br)cc1OCc1cc(Cl)cc2c1OC(C)(C)C2` [Example 57, 3-(2-bromo-4-((5-chloro-2,2-dimethyl-2,3-dihydrobenzofuran-7-yl)methoxy)-5-methoxyphenyl)propanoic acid], the half-maximal effective concentration (EC50) was in the range of 1 to 10 µM.

In the case of `CC1(C)Cc2cc(F)cc(COc3ccc(SCC(=O)O)cc3)c2O1` [Example 58, 2-((4-((5-fluoro-2,2-dimethyl-2,3-dihydrobenzofuran-7-yl)methoxy)phenyl)thio)-acetic acid], the 50% effective concentration (EC50) lay in the range of 1 to 10 µM.

With `CC1(C)Cc2cc(Cl)cc(COc3ccc(SCC(=O)O)cc3)c2O1` [Example 59, 2-((4-((5-chloro-2,2-dimethyl-2,3-dihydrobenzofuran-7-yl)methoxy)phenyl)thio)-acetic acid], the “% Activity (Ex. 25 Reference Compound)” value was found to be 117.58% and the EC50 fell in the range of 1 to 10 µM.

In the case of `CCc1cc(OCc2cc(F)cc3c2OC(C)(C)C3)ccc1/C=C/C(=O)O` [Example 60, (E)-3-(2-ethyl-4-((5-fluoro-2,2-dimethyl-2,3-dihydrobenzofuran-7-yl)methoxy)phenyl)acrylic acid], the EC50 lay within 1 to 10 µM.

Take `CC1(C)Cc2cc(F)cc(COc3ccc(CCC(=O)O)c(C(F)(F)F)c3)c2O1` [Example 61, 3-(4-((5-fluoro-2,2-dimethyl-2,3-dihydrobenzofuran-7-yl)methoxy)-2-(trifluoromethyl)phenyl)propanoic acid]: the EC50 lay in the range of 1 to 10 µM.

In the case of `CC1(C)Cc2cc(Cl)cc(COc3ccc(CCC(=O)O)c(C(F)(F)F)c3)c2O1` [Example 62, 3-(4-((5-chloro-2,2-dimethyl-2,3-dihydrobenzofuran-7-yl)methoxy)-2-(trifluoromethyl)phenyl)propanoic acid], the concentration for a half-maximal effect (EC50) is 1 to 10 µM.

Consider `CC1(C)Cc2cc(F)cc(COc3ccc(CCC(=O)O)c4c3CCC4)c2O1` [Example 63, 3-(7-((5-fluoro-2,2-dimethyl-2,3-dihydrobenzofuran-7-yl)methoxy)-2,3-dihydro-1H-inden-4-yl)propanoic acid], for which the “% Activity (Ex. 25 Reference Compound)” value is on record as 95.03% and the 50% effective concentration (EC50) fell in the range of 1 to 10 µM.

In the case of `CC1(C)Cc2cc(Cl)cc(COc3ccc(CCC(=O)O)c4c3CCC4)c2O1` [Example 64, 3-(7-((5-chloro-2,2-dimethyl-2,3-dihydrobenzofuran-7-yl)methoxy)-2,3-dihydro-1H-inden-4-yl)propanoic acid], the concentration giving a half-maximal response (EC50) was 1 to 10 µM.

For `C[C@H](Cc1ccc(OCc2cc(F)cc3c2OC(C)(C)C3)cc1)C(=O)O` [Example 65, (R)-3-(4-((5-fluoro-2,2-dimethyl-2,3-dihydrobenzofuran-7-yl)methoxy)phenyl)-2-methylpropanoic acid], the “% Activity (Ex. 25 Reference Compound)” value is given as 141.04% and the EC50 was 1 to 10 µM.

As to `C[C@@H](Cc1ccc(OCc2cc(F)cc3c2OC(C)(C)C3)cc1)C(=O)O` [Example 66, (S)-3-(4-((5-fluoro-2,2-dimethyl-2,3-dihydrobenzofuran-7-yl)methoxy)phenyl)-2-methylpropanoic acid], the EC50 fell in the range of 1 to 10 µM.

Consider `CC(Cc1ccc(NCc2cc(F)cc3c2OC(C)(C)C3)cc1)C(=O)O` (stereo not shown) [Example 67], for which the “% Activity (Ex. 25 Reference Compound)” value was determined as 141.82% and the 50% effective concentration (EC50) was in the range of 1 to 10 µM.

Take `CC(Cc1ccc(NC(=O)c2cc(F)cc3c2OC(C)(C)C3)cc1)C(=O)O` (stereo not shown) [Example 68, 3-(4-(5-fluoro-2,2-dimethyl-2,3-dihydrobenzofuran-7-carboxamido)phenyl)-2-methylpropanoic acid]: the “% Activity (Ex. 25 Reference Compound)” value is listed as 69.03%.

Take `CCOC(Cc1cc(F)c(OCc2cc(F)cc3c2OC(C)(C)C3)c(F)c1)C(=O)O` (stereo not shown) [Example 69, 3-(3,5-difluoro-4-((5-fluoro-2,2-dimethyl-2,3-dihydrobenzofuran-7-yl)methoxy)phenyl)-2-ethoxypropanoic acid]: the “% Activity (Ex. 25 Reference Compound)” value is given as 78.46%.

With `CC1(C)Cc2cc(F)cc(CCc3ccc(OCC(=O)O)cc3)c2O1` [Example 70, 2-(4-(2-(5-fluoro-2,2-dimethyl-2,3-dihydrobenzofuran-7-yl)ethyl)phenoxy)acetic acid], the “% Activity (Ex. 25 Reference Compound)” value is on record as 117.72%.

As to `CC1(C)Cc2cc(Cl)cc(COc3ccc(CCC(=O)O)c(-c4ccccc4)c3)c2O1` [Example 71, 3-(5-((5-chloro-2,2-dimethyl-2,3-dihydrobenzofuran-7-yl)methoxy)-[1,1′-biphenyl]-2-yl)propanoic acid], the “% Activity (Ex. 25 Reference Compound)” value worked out at 133.8%.

For the compound `CCCc1cc(OCc2cc(Cl)cc3c2OC(C)(C)C3)c(F)cc1CCC(=O)O` [Example 73, 3-(4-((5-chloro-2,2-dimethyl-2,3-dihydrobenzofuran-7-yl)methoxy)-5-fluoro-2-propylphenyl)propanoic acid], the “% Activity (Ex. 25 Reference Compound)” value was 114.85%.

Turning to `CC(Cc1ccc(OCc2cc(Cl)cc3c2OC(C)(C)C3=O)c(F)c1)C(=O)O` (stereo not shown) [Example 77, 3-(4-((5-chloro-2,2-dimethyl-3-oxo-2,3-dihydrobenzofuran-7-yl)methoxy)-3-fluorophenyl)-2-methylpropanoic acid], the “% Activity (Ex. 25 Reference Compound)” value turned out to be 109.62%.

Regarding `CC(Cc1ccc(OCc2cc(Cl)cc3c2OC(C)(C)C3=O)c(C(F)(F)F)c1)C(=O)O` (stereo not shown) [Example 79, 3-(4-((5-chloro-2,2-dimethyl-3-oxo-2,3-dihydrobenzofuran-7-yl)methoxy)-3-(trifluoromethyl)phenyl)-2-methylpropanoic acid], the “% Activity (Ex. 25 Reference Compound)” value came to 3.85%.

In the case of `CC(Cc1ccc(OCc2cc(Cl)cc3c2OC(C)(C)C3O)c(F)c1)C(=O)O` (stereo not shown) [Example 80, 3-(4-((5-chloro-3-hydroxy-2,2-dimethyl-2,3-dihydrobenzofuran-7-yl)methoxy)-3-fluorophenyl)-2-methylpropanoic acid], the “% Activity (Ex. 25 Reference Compound)” value was 86.25%.

Regarding `CC(Cc1ccc(OCc2cc(-c3ccc(Cl)cc3)cc3c2OC(C)(C)C3)cc1)C(=O)O` (stereo not shown) [Example 82, 3-(4-((5-(4-chlorophenyl)-2,2-dimethyl-2,3-dihydrobenzofuran-7-yl)methoxy)phenyl)-2-methylpropanoic acid], the “% Activity (Ex. 25 Reference Compound)” value was determined as 24%.

Turning to `COc1cccc(-c2cc(COc3ccc(CC(C)C(=O)O)cc3)c3c(c2)CC(C)(C)O3)c1` (stereo not shown) [Example 86, 3-(4-((5-(3-methoxyphenyl)-2,2-dimethyl-2,3-dihydrobenzofuran-7-yl)methoxy)phenyl)-2-methylpropanoic acid], the “% Activity (Ex. 25 Reference Compound)” value came to 5.23% and the concentration for a half-maximal effect (EC50) was in the range of 1 to 10 µM.

With `CC(Cc1ccc(OCc2cc(-c3cccc(C(F)(F)F)c3)cc3c2OC(C)(C)C3)cc1)C(=O)O` (stereo not shown) [Example 87, 3-(4-((2,2-dimethyl-5-(3-(trifluoromethyl)phenyl)-2,3-dihydrobenzofuran-7-yl)methoxy)phenyl)-2-methylpropanoic acid], the EC50 lay in the range of 1 to 10 µM.

In the case of `CC(Cc1ccc(OCc2cc(Cl)cc3c2OC(C)(C)C3)c(CN(C)C)c1)C(=O)O` (stereo not shown) [Example 88, 3-(4-((5-chloro-2,2-dimethyl-2,3-dihydrobenzofuran-7-yl)methoxy)-3-((dimethylamino)methyl)phenyl)-2-methylpropanoic acid], the “% Activity (Ex. 25 Reference Compound)” value was 118.92% and the EC50 was 1 to 10 µM.

The values above are taken from US8598374B2, “GPR120 receptor agonists and uses thereof” (Metabolex, Inc, priority 2008, dated 2013).
